Results reported in patent US20100324086A1, “COMPOUNDS AND METHODS” (Novasaid AB, priority 2008, published 2010).

Target: T1, recombinant, membrane-bound mPGES-1 (Homo sapiens, UniProt O14684)
T1 sequence (O14684 1-152): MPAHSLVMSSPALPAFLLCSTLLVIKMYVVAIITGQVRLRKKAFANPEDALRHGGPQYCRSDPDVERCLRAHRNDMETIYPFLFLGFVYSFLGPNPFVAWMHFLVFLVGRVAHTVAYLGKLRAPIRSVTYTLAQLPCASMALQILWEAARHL
Assay: Thiobarbituric acid assay (TBA-MDA assay), inhibition of mPGES-1
Assay type: biochemical
Settings: remaining PGH2 measured at 535 nm
Description: Malondialdehyde is a product of lipid peroxidation and reacts with thiobarbituric acid forming a red product that absorbs at 535 nm (W. G. Niehaus, Jr and B. Samuelsson, Eur. J. Biochem 6, 126 (1968). The extinction coefficient of the TBA-MDA conjugate is 1.56×10^5 M^−1 cm^−1 (E. D. Wills. Biochem. J. 113, 315 (1969).
The method used for detection of inhibition of mPGES-1 is based on the detection of the amount of remaining PGH2. This method was described more than 20 years ago by Basevich et al (Bioorg. Khim. 1983, 9(5), 658-665.
The assay used was a modified variant and used citric acid instead of the TCA-TBA-HCl reagent described in the original assay. In this assay recombinant, membrane-bound mPGES-1 was incubated with PGH2. The reaction was stopped by adding citric acid with a final pH of 3 and a large excess of FeCl2 (20 mM) to convert any remaining PGH2 into MDA and […]. TBA reagent was finally added (0.67%) and the samples were heated at 80° C. for 30 min. The absorbance of the conjugate was measured at 535 nm.
The product of mPGES-1 (PGE2) was not measured directly in this assay, but rather the remaining substrate (PGH2) indirectly by adding FeCl2 that converts PGH2 into […] and 12-HHT. As a positive control a known mPGES-1 inhibitor, MK-886, was used and the new inhibitors were compared with the inhibition of MK-886 (% of MK-886 inhibition).

IC50 [nM]	Compound
1300	COc1cccc(OC)c1C(=O)Nc1cccc(C(=O)N[C@H](C)c2cccc3ccccc23)c1 [Compound 92, 2,6-Dimethoxy-N-[3-((R)-1-naphthalen-1-yl-ethylcarbamoyl)-phenyl]-benzamide]
600	O=C(Nc1ccc2ccccc2n1)c1cccc(NC(=O)c2ccccc2Cl)c1 [Compound 9, 3-(2-Chloro-benzoylamino)-N-(quinolin-2-yl-)-benzamide]
690	Cc1ccccc1C(=O)Nc1cccc(C(=O)N[C@@H](C)c2cccc3ccccc23)c1 [Compound 78, 2-Methyl-N-[3-((S)-1-naphthalen-1-yl-ethylcarbamoyl)-phenyl]-benzamide]
860	O=C(NC1CCCc2ccccc21)c1cccc(NC(=O)c2ccccc2Cl)c1 (centres unmarked) [Compound 35, 3-(2-Chloro-benzoylamino)-N-(1,2,3,4-tetrahydro-naphthalen-1-yl)-benzamide]
130	O=C(NCc1cccc2ccccc12)c1cccc(NC(=O)c2ccccc2C(F)(F)F)c1 [Compound 109, N-{3-[(Naphthalen-1-ylmethyl)-carbamoyl]-phenyl}-2-trifluoromethyl-benzamide]
170	O=C(NCc1ccccc1N1CCCCC1)c1cccc(NC(=O)c2ccccc2C(F)(F)F)c1 [Compound 146, N-(2-piperidin-1-yl-benzyl)-3-(2-trifluoromethyl-benzoylamino)-benzamide]
3500	O=C(Nc1cccc(C(=O)Nc2ccc3ccccc3n2)c1)c1ccccc1 [Compound 17, 3-Benzoylamino-N-quinolin-2-yl-benzamide]
220	O=C(NCc1cccc2ccccc12)c1cccc(NC(=O)c2ccccc2I)c1 [Compound 112, 2-Iodo-N-{3-[(naphthalen-1-ylmethyl)-carbamoyl]-phenyl}-benzamide]
630	O=C(NC1CCCCCC1)c1cccc(NC(=O)c2c(Cl)cccc2Cl)c1 [Compound 55, 2,6-Dichloro-N-(3-cycloheptylcarbamoyl-phenyl)-benzamide]
380	C[C@@H](NC(=O)c1cccc(NC(=O)c2ccccc2Br)c1)c1cccc2ccccc12 [Compound 87, 2-Bromo-N-[3-((R)-1-naphthalen-1-yl-ethylcarbamoyl)-phenyl]-benzamide]
4200	O=C(Nc1cccc(C(=O)Nc2ccc3ccccc3n2)c1)c1cccc(Cl)c1 [Compound 29, 3-(3-Chloro-benzoylamino)-N-quinolin-2-yl-benzamide]
600	C[C@@H](NC(=O)c1cccc(NC(=O)c2c(Cl)cccc2Cl)c1)c1cccc2ccccc12 [Compound 89, 2,6-Dichloro-N-[3-((R)-1-naphthalen-1-yl-ethylcarbamoyl)-phenyl]-benzamide]
110	O=C(NCc1ccccc1OC(F)(F)F)c1cccc(NC(=O)c2ccccc2C(F)(F)F)c1 [Compound 147, N-(2-Trifluoromethoxy-benzyl)-3-(2-trifluoromethyl-benzoylamino)-benzamide]
3900	CCCCNC(=O)c1cccc(NC(=O)c2ccccc2Cl)c1 [Compound 4, 3-(2-Chloro-benzoylamino)-N-butyl-benzamide]
1300	O=C(Nc1ccccn1)c1cccc(NC(=O)c2ccccc2Cl)c1 [Compound 12, 3-(2-Chloro-benzoylamino)-N-(pyridine-2-yl)-benzamide]
6900	CCc1ccccc1C(=O)Nc1cccc(C(=O)Nc2ccc3ccccc3n2)c1 [Compound 52, 3-(2-Ethyl-benzoylamino)-N-quinolin-2-yl-benzamide]
190	O=C(Nc1ccc2ccccc2n1)c1cccc(NC(=O)c2ccccc2C(F)(F)F)c1 [Compound 43, 3-(2-Trifluoromethyl-benzoylamino)-N-quinolin-2-yl-benzamide]
330	O=C(NC1CCCCCC1)c1cccc(NC(=O)c2ccccc2Cl)c1 [Compound 36, 3-(2-Chloro-benzoylamino)-N-cycloheptyl-benzamide]
300	O=C(NC(c1ccccc1)c1ccccc1)c1cccc(NC(=O)c2ccccc2Cl)c1 [Compound 6, 3-(2-Chloro-benzoylamino)-N-(diphenylyl-methyl)-benzamide]
2200	COc1cccc(OC)c1C(=O)Nc1cccc(C(=O)NCc2cccc3ccccc23)c1 [Compound 108, 2,6-Dimethoxy-N-{3-[(naphthalen-1-ylmethyl)-carbamoyl]-phenyl}-benzamide]
260	O=C(NC1CCCCCC1)c1cccc(NC(=O)c2ccccc2I)c1 [Compound 69, N-(3-Cycloheptylcarbamoyl-phenyl)-2-iodo-benzamide]

IC50 [nM]	Compound
1800	O=C(Nc1cccc(CNCc2ccccc2C(F)(F)F)c1)c1ccccc1C(F)(F)F [Compound 125, 2-Trifluoromethyl-N-{3-[(2-trifluoromethyl-benzylamino)-methyl]-phenyl}-benzamide]
1000	Cc1ccccc1CNC(=O)c1cccc(NC(=O)c2ccccc2C(F)(F)F)c1 [Compound 142, N-(2-Methyl-benzyl)-3-(2-trifluoromethyl-benzoylamino)-benzamide]
3700	COc1ccccc1C(=O)Nc1cccc(C(=O)Nc2ccc3ccccc3n2)c1 [Compound 41, 3-(2-Methoxy-benzoylamino)-N-quinolin-2-yl-benzamide]
5800	O=C(NCc1ccccc1)c1cccc(NC(=O)c2ccccc2Cl)c1 [Compound 2, 3-(2-Chloro-benzoylamino)-N-benzyl-benzamide]
470	CN(C)c1ccccc1CNC(=O)c1cccc(NC(=O)c2ccccc2C(F)(F)F)c1 [Compound 145, N-(2-Dimethylamino-benzyl)-3-(2-trifluoromethyl-benzoylamino)-benzamide]
1900	O=C(Nc1ccc2cccc(O)c2n1)c1cccc(NC(=O)c2ccccc2C(F)(F)F)c1 [Compound 140, N-(8-hydroxy-quinolin-2-yl)-3-(2-trifluoromethyl-benzoylamino)-benzamide]
290	C[C@@H](NC(=O)c1cccc(NC(=O)c2ccccc2Cl)c1)c1cccc2ccccc12 [Compound 101, 2-Chloro-N-[3-((R)-1-naphthalen-1-yl-ethylcarbamoyl)-phenyl]-benzamide]
4100	COc1cccc(OC)c1C(=O)Nc1cccc(C(=O)N[C@@H](C)c2cccc3ccccc23)c1 [Compound 76, 2,6-Dimethoxy-N-[3-((S)-1-naphthalen-1-yl-ethylcarbamoyl)-phenyl]-benzamide]
230	C[C@@H](NC(=O)c1cccc(NC(=O)c2ccccc2I)c1)c1cccc2ccccc12 [Compound 96, 2-Iodo-N-[3-((R)-1-naphthalen-1-A-ethylcarbamoyl)-phenyl]-benzamide]
330	Cc1ccccc1C(=O)Nc1cccc(C(=O)NCc2cccc3ccccc23)c1 [Compound 110, N-{3-[(Naphthalen-1-ylmethyl)-carbamoyl]-phenyl}-2-methyl-benzamide]
470	C[C@H](NC(=O)c1cccc(NC(=O)c2c(Cl)cccc2Cl)c1)c1cccc2ccccc12 [Compound 74, 2,6-Dichloro-N-[3-((S)-1-naphthalen-1-yl-ethylcarbamoyl)-phenyl]-benzamide]
840	COc1ccccc1CNC(=O)c1cccc(NC(=O)c2ccccc2C(F)(F)F)c1 [Compound 144, N-(2-Methoxy-benzyl)-3-(2-trifluoromethyl-benzoylamino)-benzamide]
140	O=C(Nc1ccc2ccccc2n1)c1cccc(NC(=O)c2ccccc2Br)c1 [Compound 38, 3-(2-Bromo-benzoylamino)-N-quinolin-2-yl-benzamide]
180	O=C(NC1CCCCCC1)c1cccc(NC(=O)c2ccccc2Br)c1 [Compound 68, 2-Bromo-N-(3-cycloheptylcarbamoyl-phenyl)-benzamide]
3000	CC(=O)Oc1ccccc1C(=O)Nc1cccc(C(=O)Nc2ccc3ccccc3n2)c1 [Compound 50, Acetic acid 2-[3-(quinolin-2-ylcarbamoyl)-phenylcarbamoyl]-phenyl ester]
280	O=C(NCc1ccccc1)c1cccc(NC(=O)c2ccccc2C(F)(F)F)c1 [Compound 141, N-(Benzyl)-3-(2-trifluoromethyl-benzoylamino)-benzamide]
180	O=C(NCc1cccc2ccccc12)c1cccc(NC(=O)c2ccccc2Br)c1 [Compound 103, 2-Bromo-N-{3-[(naphthalen-1-ylmethyl)-carbamoyl]-phenyl}-benzamide]
990	O=C(NCc1cccc2c1OCCO2)c1cccc(NC(=O)c2ccccc2C(F)(F)F)c1 [Compound 148, N-(2,3-dihydro-benzo[1,4]dioxin-5-ylmethyl)-3-(2-trifluoromethyl-benzoylamino)-benzamide]
200	O=C(NCc1ccccc1-c1ccccc1)c1cccc(NC(=O)c2ccccc2C(F)(F)F)c1 [Compound 136, N-(2-Phenyl-benzyl)-3-(2-trifluoromethyl-benzoylamino)-benzamide]
650	Cc1ccccc1C(=O)Nc1cccc(C(=O)Nc2ccc3ccccc3n2)c1 [Compound 44, 3-(2-Methyl-benzoylamino)-N-quinolin-2-yl-benzamide]
